According to US10023593B2, “ALK kinase inhibitor, and preparation method and uses thereof” (BEIJING PEARL BIOTECHNOLOGY LIMITED LIABILITY COMPANY, priority 2014, dated 2018):

How the values were obtained:
Wild Type ALK kinase = target: T1, Wild Type ALK kinase (Homo sapiens, UniProt Q9UM73); assay: HTRF KinEASE-TK assay, inhibitory activity on wild type ALK kinase; assay type: biochemical; conditions: wild type ALK 1 ng/μl, substrate 1 μM, 30° C. 35 minutes, read-out: Inhibition on ALK kinases (wildtype), IC50
T1 construct: purchased Sino-US Crown Bioscience, Inc. batch number ALK 20110607
Procedure, shortened: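 ALK kinase at 1 ng/μl and substrate at 1 μM were reacted with compound (1% DMSO) in buffer with 5 mM MgCl2 and 1 mM DTT for 35 min at 30 °C. HTRF detection used the 665/615 ratio, normalised to no-compound wells and to 10.4 μM LDK-378 wells. IC50 came from a concentration-response fit.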

Karpas-299 cell line = assay: CellTiter-Glo cell proliferation inhibition on Karpas-299 cell line; assay type: cell-based; conditions: Homo sapiens, 96 h, Karpas-299 cells, 5000 cells/well, 4 days drug treatment
Procedure, shortened: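 Karpas-299 cells (5000/well, RPMI-1640 + 10% FBS) pre-incubated 2 h at 37 °C, then treated with compound (0.5% DMSO final) for 4 days. Viability read by CellTiter-Glo luminescence; inhibition calculated against DMSO control, IC50 fitted.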

cytochrome P450 2D6 = cytochrome P450 2D6 (Homo sapiens, UniProt P10635); assay: Inhibitory activity on cytochrome P450 2D6; assay type: in vitro ADME; conditions: no significant inhibition
cytochrome P450 2C19 = cytochrome P450 2C19 (Homo sapiens, UniProt P33261); assay: Inhibitory activity on cytochrome P450 2C19; assay type: in vitro ADME; conditions: no significant inhibition
cytochrome P450 2C9 = cytochrome P450 2C9 (Homo sapiens, UniProt P11712); assay: Inhibitory activity on cytochrome P450 2C9; assay type: in vitro ADME; conditions: no significant inhibition
cytochrome P450 1A2 = target: T2, cytochrome P450 1A2 (Homo sapiens, UniProt P05177); assay: Inhibitory activity on cytochrome P450 1A2; assay type: in vitro ADME; conditions: no significant inhibition
T2 sequence (P05177 1-516): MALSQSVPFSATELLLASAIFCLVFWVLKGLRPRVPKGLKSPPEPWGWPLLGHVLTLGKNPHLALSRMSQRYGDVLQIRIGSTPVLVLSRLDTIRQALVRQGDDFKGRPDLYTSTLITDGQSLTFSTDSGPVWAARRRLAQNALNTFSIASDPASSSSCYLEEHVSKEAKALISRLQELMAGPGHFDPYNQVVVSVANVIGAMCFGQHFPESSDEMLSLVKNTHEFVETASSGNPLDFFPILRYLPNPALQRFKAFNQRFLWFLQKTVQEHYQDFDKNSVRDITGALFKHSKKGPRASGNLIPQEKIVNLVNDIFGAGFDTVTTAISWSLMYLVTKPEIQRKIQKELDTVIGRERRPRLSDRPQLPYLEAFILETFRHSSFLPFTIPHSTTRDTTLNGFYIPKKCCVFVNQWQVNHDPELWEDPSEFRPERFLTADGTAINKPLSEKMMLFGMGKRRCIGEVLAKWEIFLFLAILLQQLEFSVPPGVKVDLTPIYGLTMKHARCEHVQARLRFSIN

cytochrome P450 3A4 = cytochrome P450 3A4 (Homo sapiens, UniProt P08684); assay: Inhibitory activity on cytochrome P450 3A4; assay type: in vitro ADME; conditions: no significant inhibition
Sequence of cytochrome P450 3A4 (P08684 whole entry): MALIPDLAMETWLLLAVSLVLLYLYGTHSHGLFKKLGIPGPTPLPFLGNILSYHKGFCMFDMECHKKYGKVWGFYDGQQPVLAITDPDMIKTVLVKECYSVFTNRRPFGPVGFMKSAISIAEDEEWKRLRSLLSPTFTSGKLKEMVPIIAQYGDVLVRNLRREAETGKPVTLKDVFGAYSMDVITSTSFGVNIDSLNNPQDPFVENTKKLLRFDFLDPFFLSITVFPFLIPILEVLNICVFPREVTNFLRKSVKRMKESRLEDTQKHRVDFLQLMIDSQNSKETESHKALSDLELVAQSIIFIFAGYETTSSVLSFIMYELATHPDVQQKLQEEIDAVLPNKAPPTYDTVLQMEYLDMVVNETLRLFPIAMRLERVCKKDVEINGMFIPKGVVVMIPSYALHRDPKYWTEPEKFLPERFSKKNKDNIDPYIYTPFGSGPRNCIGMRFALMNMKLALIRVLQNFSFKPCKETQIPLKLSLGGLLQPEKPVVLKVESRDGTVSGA

Sequence of cytochrome P450 2C19 (P33261 whole entry): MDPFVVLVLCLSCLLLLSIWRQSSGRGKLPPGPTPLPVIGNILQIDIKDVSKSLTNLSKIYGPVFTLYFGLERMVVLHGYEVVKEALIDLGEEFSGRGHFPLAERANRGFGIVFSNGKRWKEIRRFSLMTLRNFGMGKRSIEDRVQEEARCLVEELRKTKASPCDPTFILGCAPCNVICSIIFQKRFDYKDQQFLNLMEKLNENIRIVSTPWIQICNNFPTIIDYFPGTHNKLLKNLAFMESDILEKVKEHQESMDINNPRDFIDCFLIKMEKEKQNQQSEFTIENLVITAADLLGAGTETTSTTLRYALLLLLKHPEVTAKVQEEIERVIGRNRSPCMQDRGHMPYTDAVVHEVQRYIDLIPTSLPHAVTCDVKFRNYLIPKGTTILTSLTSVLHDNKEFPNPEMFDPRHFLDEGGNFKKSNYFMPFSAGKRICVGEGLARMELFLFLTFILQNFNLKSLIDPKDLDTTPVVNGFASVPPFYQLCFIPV
T1 sequence (Q9UM73 19-1620): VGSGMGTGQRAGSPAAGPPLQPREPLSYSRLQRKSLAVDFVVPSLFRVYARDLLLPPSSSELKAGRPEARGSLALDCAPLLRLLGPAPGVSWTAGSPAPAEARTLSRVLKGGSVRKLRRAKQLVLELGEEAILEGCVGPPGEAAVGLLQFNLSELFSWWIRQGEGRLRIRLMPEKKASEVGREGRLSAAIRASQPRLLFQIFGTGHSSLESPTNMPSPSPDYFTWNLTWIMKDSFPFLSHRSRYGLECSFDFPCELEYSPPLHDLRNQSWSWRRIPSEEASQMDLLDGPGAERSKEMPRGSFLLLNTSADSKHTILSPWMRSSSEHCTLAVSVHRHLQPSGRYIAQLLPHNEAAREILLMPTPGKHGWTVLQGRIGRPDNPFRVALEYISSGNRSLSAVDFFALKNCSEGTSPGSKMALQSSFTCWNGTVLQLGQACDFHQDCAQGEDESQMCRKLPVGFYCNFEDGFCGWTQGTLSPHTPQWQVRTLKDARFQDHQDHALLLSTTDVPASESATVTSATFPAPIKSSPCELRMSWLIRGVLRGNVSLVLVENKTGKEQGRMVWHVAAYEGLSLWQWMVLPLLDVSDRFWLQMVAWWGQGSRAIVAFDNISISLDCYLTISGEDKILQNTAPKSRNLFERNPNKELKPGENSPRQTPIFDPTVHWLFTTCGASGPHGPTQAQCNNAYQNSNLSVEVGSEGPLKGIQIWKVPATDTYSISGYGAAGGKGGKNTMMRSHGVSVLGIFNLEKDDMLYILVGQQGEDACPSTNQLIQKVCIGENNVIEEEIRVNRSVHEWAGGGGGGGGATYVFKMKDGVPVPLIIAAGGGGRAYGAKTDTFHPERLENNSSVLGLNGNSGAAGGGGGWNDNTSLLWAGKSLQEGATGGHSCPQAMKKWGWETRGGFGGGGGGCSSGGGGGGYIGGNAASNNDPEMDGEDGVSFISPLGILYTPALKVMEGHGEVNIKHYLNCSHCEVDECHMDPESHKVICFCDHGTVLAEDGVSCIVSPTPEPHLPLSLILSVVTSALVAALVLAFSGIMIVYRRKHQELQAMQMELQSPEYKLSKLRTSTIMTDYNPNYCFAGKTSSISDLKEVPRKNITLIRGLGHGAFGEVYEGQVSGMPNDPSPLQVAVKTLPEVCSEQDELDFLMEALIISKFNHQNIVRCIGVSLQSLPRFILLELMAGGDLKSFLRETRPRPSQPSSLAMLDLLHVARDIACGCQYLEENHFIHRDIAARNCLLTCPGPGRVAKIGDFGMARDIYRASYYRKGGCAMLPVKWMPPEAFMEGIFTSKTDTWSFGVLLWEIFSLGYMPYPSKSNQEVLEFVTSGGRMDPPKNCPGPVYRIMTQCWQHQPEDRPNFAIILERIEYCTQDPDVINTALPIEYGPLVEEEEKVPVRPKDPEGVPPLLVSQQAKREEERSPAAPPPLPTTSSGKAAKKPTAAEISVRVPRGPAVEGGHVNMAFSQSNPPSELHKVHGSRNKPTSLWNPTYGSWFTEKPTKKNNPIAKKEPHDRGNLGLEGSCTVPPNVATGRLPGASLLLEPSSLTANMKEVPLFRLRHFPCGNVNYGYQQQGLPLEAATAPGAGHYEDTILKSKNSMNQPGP
Sequence of cytochrome P450 2D6 (P10635 whole entry): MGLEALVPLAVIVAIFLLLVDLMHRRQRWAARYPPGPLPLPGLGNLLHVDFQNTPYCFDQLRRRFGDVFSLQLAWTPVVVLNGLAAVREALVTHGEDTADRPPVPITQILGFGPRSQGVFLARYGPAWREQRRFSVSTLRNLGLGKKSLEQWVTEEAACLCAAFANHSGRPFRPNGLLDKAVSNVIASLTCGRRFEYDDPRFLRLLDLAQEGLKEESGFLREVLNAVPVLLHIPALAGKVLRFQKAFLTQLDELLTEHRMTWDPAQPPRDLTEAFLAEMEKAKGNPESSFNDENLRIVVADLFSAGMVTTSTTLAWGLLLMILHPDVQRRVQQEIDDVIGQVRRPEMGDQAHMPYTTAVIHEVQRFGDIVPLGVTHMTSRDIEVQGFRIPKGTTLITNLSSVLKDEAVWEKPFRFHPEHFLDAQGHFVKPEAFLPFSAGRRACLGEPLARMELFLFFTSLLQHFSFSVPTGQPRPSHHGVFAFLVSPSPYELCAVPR
Sequence of cytochrome P450 2C9 (P11712 whole entry): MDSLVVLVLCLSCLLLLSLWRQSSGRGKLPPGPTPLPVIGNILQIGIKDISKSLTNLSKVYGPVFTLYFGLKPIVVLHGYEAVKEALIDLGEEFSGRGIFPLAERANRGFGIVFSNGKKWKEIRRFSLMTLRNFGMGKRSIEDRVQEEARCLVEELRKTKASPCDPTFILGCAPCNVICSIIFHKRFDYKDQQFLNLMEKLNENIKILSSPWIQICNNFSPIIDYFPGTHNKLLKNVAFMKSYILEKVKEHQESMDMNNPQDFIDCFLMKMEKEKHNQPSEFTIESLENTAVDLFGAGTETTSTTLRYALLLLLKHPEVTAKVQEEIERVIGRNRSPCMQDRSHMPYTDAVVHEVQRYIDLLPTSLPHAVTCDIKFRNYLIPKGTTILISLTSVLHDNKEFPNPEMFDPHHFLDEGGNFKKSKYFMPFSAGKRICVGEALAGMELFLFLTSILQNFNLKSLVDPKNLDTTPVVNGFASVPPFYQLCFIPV

| Compound | IC50 (Wild Type ALK kinase) | IC50 (Karpas-299 cell line) | IC50 (cytochrome P450 2D6) | IC50 (cytochrome P450 2C19) | IC50 (cytochrome P450 2C9) | IC50 (cytochrome P450 1A2) | IC50 (cytochrome P450 3A4) |
| --- | --- | --- | --- | --- | --- | --- | --- |
| CC(C)Oc1cc(C2CCNCC2)ccc1Nc1ncc(Cl)c(Nc2cn(C)nc2S(=O)(=O)C(C)C)n1 [Final product 1, 5-chloro-N^2-[2-isopropoxy-4-(piperidin-4-yl)phenyl]-N^4-(3-isopropylsulfonyl-1-methyl-1H-pyrazol-4-yl)pyrimidin-2,4-diamine] | 4 nM | 10 nM |  |  |  |  |  |
| Cc1cc(Nc2ncc(Cl)c(Nc3cn(C)nc3S(=O)(=O)C(C)C)n2)c(OC(C)C)cc1C1CCNCC1 [Final product 2] | 6 nM | 16 nM |  |  |  |  |  |
| Cc1cc(Nc2ncc(Cl)c(Nc3cn(C)nc3S(=O)(=O)C(C)C)n2)c(OC(C)C)cc1C1CCNC1 (centres unmarked) [Final product 3] | 4 nM | 28 nM |  |  |  |  |  |
| Cc1cc(Nc2ncc(Cl)c(Nc3cn(C)nc3S(=O)(=O)C(C)C)n2)c(OC2CC2)cc1C1CCN(C)C1 (centres unmarked) [Final product 53] | 3 nM | 16 nM |  |  |  |  |  |
| Cc1cc(Nc2ncc(Cl)c(Nc3cn(C)nc3S(=O)(=O)C(C)C)n2)c(OC2CC2)cc1C1CN(C)C1 [Final product 54] | 3 nM | 7 nM |  |  |  |  |  |
| Cc1cc(Nc2ncc(Cl)c(Nc3cn(C)nc3S(=O)(=O)CC(C)C)n2)c(OC2CC2)cc1C1CN(C)C1 [Final product 55] | 4 nM | 25 nM |  |  |  |  |  |
| Cc1cc(Nc2ncc(Cl)c(Nc3cn(C4CC4)nc3S(=O)(=O)C(C)C)n2)c(OC2CC2)cc1C1CCN(C)CC1 [Final product 56] | 5 nM | 21 nM |  |  |  |  |  |
| Cc1cc(Nc2ncc(Cl)c(Nc3cn(C)nc3S(=O)(=O)CC(C)C)n2)c(OC2CC2)cc1C1CCN(C)CC1 [Final product 57] | 7 nM | 12 nM | > 10000 nM | > 10000 nM | > 10000 nM | > 10000 nM | > 10000 nM |
| COC1CN(C)CCC1c1cc(OC2CC2)c(Nc2ncc(Cl)c(Nc3cn(C)nc3S(=O)(=O)C(C)C)n2)cc1C (centres unmarked) [Final product 58] | 4 nM | 11 nM |  |  |  |  |  |
| COCC1CC(c2cc(OC3CC3)c(Nc3ncc(Cl)c(Nc4cn(C)nc4S(=O)(=O)C(C)C)n3)cc2C)CCN1C (centres unmarked) [Final product 77] | 2 nM | 4 nM | > 10000 nM | > 10000 nM | > 10000 nM | > 10000 nM | > 10000 nM |
| COCC1CC(c2cc(OC3CC3)c(Nc3ncc(Cl)c(Nc4cn(C)nc4S(=O)(=O)CC(C)C)n3)cc2C)CCN1C (centres unmarked) [Final product 79] | 3 nM | 12 nM |  |  |  |  |  |
| Cc1cc(Nc2ncc(Cl)c(Nc3cn(C4CC4)nc3S(=O)(=O)C(C)C)n2)c(OC(C)C)cc1C1CCN(C)CC1 [Final product 81] | 11 nM | 27 nM |  |  |  |  |  |
| COCCN1CCC(c2cc(OC3CC3)c(Nc3ncc(Cl)c(Nc4cn(C)nc4S(=O)(=O)C(C)C)n3)cc2C)CC1 [Final product 82] | 4 nM | 14 nM | > 10000 nM | > 10000 nM | > 10000 nM | > 10000 nM | > 10000 nM |
| Cc1cc(Nc2ncc(Cl)c(Nc3cn(C)nc3S(=O)(=O)C(C)C)n2)c(OC2CC2)cc1C1CCN(C)CC1F (centres unmarked) [Final product 87] | 6 nM | 13 nM |  |  |  |  |  |
| Cc1cc(Nc2ncc(Cl)c(Nc3cn(C)nc3S(=O)(=O)C(C)C)n2)c(OC2CC2)cc1C1CCN(C)CC1(F)F (centres unmarked) [Final product 88] | 6 nM | 17 nM |  |  |  |  |  |
| Cc1cc(Nc2ncc(Cl)c(Nc3cn(C)nc3S(=O)(=O)C(C)C)n2)c(OC2CC2)cc1C1CCN(C)CC1C (centres unmarked) [Final product 90] | 1 nM | 5 nM |  |  |  |  |  |
| Cc1cc(Nc2ncc(Cl)c(Nc3cn(C)nc3S(=O)(=O)C(C)C)n2)c(OC2CC2)cc1C1CCC(NS(C)(=O)=O)CC1 (centres unmarked) [Final product 205, N-(4-(4-(5-chloro-4-(3-(isopropylsulfonyl)-1-methyl-1H-pyrazol-4-amine)pyrimidin-2-amine)-5-cyclopropoxy-2-methylphenyl)cyclohexyl)methanesulfonamide] |  | 18 nM | > 10000 nM | > 10000 nM | > 10000 nM | > 10000 nM | > 10000 nM |
